Target: PhoP (Mycobacterium tuberculosis, UniProt P71814)
Assay type: binding

Structure (SMILES): [N-]=[N+]=Nc1ccc(C(=O)CSC[C@H](NC(=O)CC[C@H](N)C(=O)O)C(=O)NCC(=O)O)cc1 [NCGC00093547]
- Kd: 12.6 µM
